This is an account of results in patent US7256028B2, “Methods for screening compounds that modulate lipid metabolism” (Xenon Genetics Inc., priority 2000, dated 2007).

In data set [1] the target is T1, human delta-5-desaturase (Homo sapiens, UniProt O60427).
T1 construct: expressed in transfected cells; host or cells: Saccharomyces cerevisiae INVSc1 transformed with pTh5009.1 (pYES2/CT backbone), galactose-induced; whole cells or spheroplasts
T1 sequence (O60427 with tags, fused parts or gaps): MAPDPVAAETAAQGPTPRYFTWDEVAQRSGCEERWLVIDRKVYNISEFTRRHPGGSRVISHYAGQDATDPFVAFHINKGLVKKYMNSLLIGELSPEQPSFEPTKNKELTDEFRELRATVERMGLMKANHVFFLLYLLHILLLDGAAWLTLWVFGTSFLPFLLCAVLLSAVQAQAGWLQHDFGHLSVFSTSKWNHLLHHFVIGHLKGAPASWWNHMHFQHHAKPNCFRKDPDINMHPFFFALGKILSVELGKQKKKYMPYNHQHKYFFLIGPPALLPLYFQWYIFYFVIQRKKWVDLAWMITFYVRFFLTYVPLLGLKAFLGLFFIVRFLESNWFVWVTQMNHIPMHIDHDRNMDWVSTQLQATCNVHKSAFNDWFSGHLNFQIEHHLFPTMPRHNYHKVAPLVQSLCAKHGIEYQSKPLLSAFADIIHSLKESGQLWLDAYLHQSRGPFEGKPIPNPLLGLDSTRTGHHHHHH
Put plainly: Inhibition of human delta-5-desaturase in spheroplasts of Saccharomyces cerevisiae transformed with pTh5009.1. The format is cell-based. The method, then:
(§1) After 16 h incubation, spheroplasts were prepared as previously described in Example 8.

The subject of data set [2] is spheroplasts of Saccharomyces cerevisiae. Put plainly: Cell density (O.D.600) and substrate radioactivity recovered in spheroplasts incubated with inhibitor. From the text:
Total lipids were extracted and analyzed as described in Example 6.

Data set [3] deals with fatty acid desaturases. The settings on record: Kawashima et al., 1996; cited from earlier work.
Data set [4] deals with whole cells of Saccharomyces cerevisiae. Put plainly: Cell density (O.D.600) and substrate radioactivity recovered in whole yeast incubated with inhibitor. It counts as cell-based.
Description: (§2) Incubation of Whole Yeast: Saccharomyces cerevisiae transformed with either pYr5014.1 or pTh5009.1 were incubated in a 125 ml Erlenmeyer flask containing 9 ml of SC-U medium with 1% tergitol (O.D.600 0.4, approximately 3.2×10^6 cells/ml) and 200 μl of n-propyl gallate in ethanol (final concentration in the culture ranged between 1.7-14.0 mM). After I h incubation in an orbital incubator at 270 rpm and 30° C., 1 μCi of potassium salt of [1-^14C]-dihomogammalinolenic acid (dissolved in SC-U medium and 1% tergitol) was added to the cell suspension to a final concentration of 2 μM. After 5 h incubation with the inhibitor, cells reached the log phase and the transgene expression was induced with the addition of 1 ml of galactose to a final concentration of 2%. Yeast were further incubated for 19 h (O.D.600 range: 5-10) until they were harvested by centrifugation at 5000×g for 10 minutes at 4° C.
Data set [5] deals with T2, rat delta-5-desaturase (Rattus norvegicus, UniProt Q920R3, Q29H/R30G).
T2 construct: A rD5D cDNA fragment spanning nucleotides +1 to +1344 was cloned by RT-PCR using total RNA extracted from rat liver tissue; expressed in transfected cells; host or cells: Saccharomyces cerevisiae INVSc1 transformed with pYr5014.1 (pYES2 backbone), galactose-induced; whole cells or spheroplasts
T2 sequence (Q920R3 1-447 Q29H/R30G): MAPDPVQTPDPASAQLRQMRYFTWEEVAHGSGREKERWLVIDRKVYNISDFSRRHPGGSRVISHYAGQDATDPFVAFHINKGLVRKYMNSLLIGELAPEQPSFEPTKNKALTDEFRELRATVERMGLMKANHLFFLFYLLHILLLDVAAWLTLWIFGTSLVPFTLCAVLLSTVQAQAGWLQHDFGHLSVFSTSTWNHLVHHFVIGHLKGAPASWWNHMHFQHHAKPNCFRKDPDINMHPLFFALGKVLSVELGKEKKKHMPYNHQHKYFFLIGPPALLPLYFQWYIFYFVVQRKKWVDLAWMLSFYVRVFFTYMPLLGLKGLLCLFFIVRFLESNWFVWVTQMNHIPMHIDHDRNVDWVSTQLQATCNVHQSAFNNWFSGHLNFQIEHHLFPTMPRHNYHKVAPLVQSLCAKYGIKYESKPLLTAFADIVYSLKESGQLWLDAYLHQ
As to the kind of experiment: Inhibition of rat delta-5-desaturase in whole cells of Saccharomyces cerevisiae transformed with pYr5014.1. The format is cell-based.
Description: as §2
(§3) Calculations: The delta-5-desaturase activity was determined by measuring the conversion of radiolabelled dihomogammalinolenic acid to arachidonic acid (20:3n-6 to 20:4n-6). The percent inhibition was calculated as described elsewhere (Kawashima et al., 1996, Biosci. Biotech. Biochem., 60:1672-1676): % Inhibition=100(activity without the inhibitor−activity with the inhibitor)/activity without the inhibitor

For data set [6], the target named is T3, delta-5-desaturase (Rattus norvegicus, UniProt Q920R3).
T3 construct: from tissue; host or cells: liver microsomes of Wistar rats
T3 sequence (Q920R3 whole entry): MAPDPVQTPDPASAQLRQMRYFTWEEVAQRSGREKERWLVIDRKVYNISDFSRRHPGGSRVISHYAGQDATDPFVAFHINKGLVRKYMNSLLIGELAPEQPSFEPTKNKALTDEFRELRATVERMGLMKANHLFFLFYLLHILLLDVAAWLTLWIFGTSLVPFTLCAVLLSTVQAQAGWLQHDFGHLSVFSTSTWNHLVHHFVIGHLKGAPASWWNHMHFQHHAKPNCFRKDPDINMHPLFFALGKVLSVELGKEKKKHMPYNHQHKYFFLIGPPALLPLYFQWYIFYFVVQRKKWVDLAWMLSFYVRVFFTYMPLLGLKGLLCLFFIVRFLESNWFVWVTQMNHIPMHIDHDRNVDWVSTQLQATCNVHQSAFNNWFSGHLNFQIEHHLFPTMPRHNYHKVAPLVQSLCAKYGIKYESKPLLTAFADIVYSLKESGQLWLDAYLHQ
Put plainly: Inhibition of delta-5-desaturase activity in rat liver microsomes. The format is biochemical. The method, then: Preparation rat liver microsomes: Wistar rats under light halothane (15% in mineral oil) anesthesia were sacrificed by exsanguination during periods of high enzyme activity. Livers are immediately rinsed with cold 0.9% NaCl solution, weighed and minced with scissors. All procedures are performed at 4° C. unless specified otherwise. Livers are homogenized in a solution (1:3 w/v) containing 0.25 M sucrose, 62 mM. potassium phosphate buffer (pH 7.0), 0.15 M KCl, 1.5 mM N-acetylcysteine, 5 mM MgCl2, and 0.1 mM EDTA using 4 strokes of a Potter-Elvehjem tissue homogenizer. The homogenate is centrifuged at 10,400×g for 20 min to eliminate mitochondria and cellular debris. The supernatant is filtered through a 3-layer cheesecloth and centrifuged at 105,000×g for 60 min. The microsomal pellet is gently resuspended in the same homogenization solution with a small glass/teflon homogenizer and stored at −70° C. The absence of mitochondrial contamination is enzymatically assessed. The protein concentration is measured using bovine serum albumin as the standard.
Incubation of rat liver microsomes with delta-5-desaturase modulators: Reactions are started by adding 2 mg of microsomal protein to pre-incubated tubes containing 0.20 μCi of the substrate fatty acid (DLL) at a final concentration of 33.3 μM in 1.5 ml of homogenization solution, containing NaF (42 mM), niacinamide (0.33 mM), ATP (1.57 mM), NADH (1.0 mM), coenzyme A (0.09 mM) and a range of concentrations of the enzyme modulators. N-propyl gallate was added to the incubation medium to a final concentration of 0.02-0.32 mM. The tubes are vortexed vigorously and after 15 min incubation in a shaking water bath (37° C.), the reactions are stopped and fatty acids are analyzed as described in Example 6. Alternatively, fatty acid methyl esters are analyzed by capillary column gas chromatography (GC).

Data set [7] concerns the target T1, human delta-5-desaturase. As to the kind of experiment: Inhibition of human delta-5-desaturase in whole cells of Saccharomyces cerevisiae transformed with pTh5009.1. It counts as cell-based.
Description: as §2, §3
In data set [8] the target is T2, rat delta-5-desaturase. As to the kind of experiment: Inhibition of rat delta-5-desaturase in spheroplasts of Saccharomyces cerevisiae transformed with pYr5014.1. It counts as cell-based. The method, then:
as §1

Data set [9] has as its system D6D Promoter (human delta-6-desaturase control region, pRh4002.1). Put plainly: CAT reporter assay, basal activity of D6D promoter in ZR-75-1 cell line. The format is cell-based. Conditions: ZR-75-1 cells transfected with pRh4002.1 (D6D) plus agent; CAT activity normalized to pCat3-Control = 100; pRh4002.1 alone 75.91.
The mark [10] stands for this setting: n-propyl gallate 0.25 mM, 20:3n-6 to 20:4n-6.

On to `CCCOC(=O)c1cc(O)c(O)c(O)c1` [n-propyl gallate, 3,4,5-Trihydoxybenzoic acid propyl ester], for which the “% inhibition” value in [1] (setting [10]) is 14.6%; in data set [1] (n-propyl gallate 0.50 mM), 17.6%; in data set [1] (n-propyl gallate 1.00 mM), 24.0%; in data set [1] (n-propyl gallate 2.00 mM) it was 41.0%; in data set [1] (n-propyl gallate 4.00 mM), 100.0%; in [1] (n-propyl gallate 8.00 mM), 100.0%. The “% inhibition” value in data set [5] (n-propyl gallate 7.0 mM, gene induced after addition of inhibitor) is 38.9%; in data set [5] (n-propyl gallate 14.0 mM), 68.5%; in data set [7] (n-propyl gallate 1.7 mM, gene induced after addition of inhibitor), 25.0%; in data set [7] (n-propyl gallate 3.5 mM), 63.3%; in [7] (n-propyl gallate 7.0 mM) it was 100.0%; in [8] (setting [10]), 4.3%. For the same compound, the “% inhibition” value in data set [8] (n-propyl gallate 1.00 mM) stood at 7.0%; in [8] (n-propyl gallate 2.00 mM) it was 20.5%; in [8] (n-propyl gallate 4.00 mM), 50.4%; in [8] (n-propyl gallate 8.00 mM) it was 81.9%. The O.D.600 was determined as 2.4 in data set [2] (n-propyl gallate 0.25 mM, pTh5009.1, without inhibitor 2.6); 2.8 in data set [2] (n-propyl gallate 0.25 mM, pYr5014.1, without inhibitor 3.2); 2.5 in data set [2] (n-propyl gallate 0.50 mM, pTh5009.1); 2.5 in data set [2] (n-propyl gallate 1.00 mM, pTh5009.1); 2.9 in data set [2] (n-propyl gallate 1.00 mM, pYr5014.1); 2.2 in [2] (n-propyl gallate 2.00 mM, pTh5009.1). Also, the O.D.600 is recorded as 2.7 in [2] (n-propyl gallate 2.00 mM, pYr5014.1); 2.4 in [2] (n-propyl gallate 4.00 mM, pTh5009.1); 2.9 in data set [2] (n-propyl gallate 4.00 mM, pYr5014.1); 1.2 in data set [2] (n-propyl gallate 8.00 mM, pTh5009.1); 2.8 in [2] (n-propyl gallate 8.00 mM, pYr5014.1); 9.0 in [4] (n-propyl gallate 1.7 mM, pTh5009.1, without inhibitor 10.9). Besides, the O.D.600 in data set [4] (n-propyl gallate 3.5 mM, pTh5009.1) amounted to 9.9; in [4] (n-propyl gallate 7.0 mM, pTh5009.1), 10.5; in data set [4] (n-propyl gallate 7.0 mM, pYr5014.1, without inhibitor 6.7), 6.5; in data set [4] (n-propyl gallate 14.0 mM, pYr5014.1), 5.4. Also, the “cytotoxicity (consistent O.D.600 readings)” value in data set [2] (n-propyl gallate between 0.7-4.0 mM) is given as “not cytotoxic”. The “type of inhibition of fatty acid desaturases” value in data set [3] is recorded as “noncompetitive inhibitor”. The “concentration of the inhibitor at which a plateau of inhibition was reached” value in [6] is 0.08 to 0.32 mM. Further, the “% of inhibition” value worked out at 62.9% in data set [6] (n-propyl gallate 0.02 mM, activity without inhibitor 394 pmol/mg microsomal protein/min); 74.9% in data set [6] (n-propyl gallate 0.04 mM); 86.4% in data set [6] (n-propyl gallate 0.08 mM); 88.7% in data set [6] (n-propyl gallate 0.16 mM); 100.0% in [6] (n-propyl gallate 0.32 mM).
For the compound `CC/C=C\C/C=C\C/C=C\C/C=C\C/C=C\C/C=C\CCC(=O)O` [DHA, docosahexaenoic acid], in data set [9], the “Percent Activity Compared to Controls” value worked out at 19.82 ± 1.41%.
